# Patent publication US20200253929A1, “TREATMENT OF EPILEPSY” (priority 2017, published 2020)
# Experiments:
# CYP2C9 = biological target: T1, CYP2C9 (Homo sapiens, UniProt P11712); assay: CYP450 enzyme inhibition assay, CYP2C9; type: in vitro ADME; conditions: human liver microsomes; for IC50: diclofenac probe
# T1 construct: containing Human Liver Microsomes (HLM) (0.5 mg/mL); from tissue; host or cells: human liver microsomes
# Method: Protocol was based on literature [Perez-Del Palacio et al. (2017) Front Pharmacol 8, 202]. Assessment of CYP450 inhibition was conducted in 96-well plate format at 37° C. Test compounds were dissolved in DMSO/acetonitrile (2 μL) and diluted in 98 μL NADPH solution (2 mM). Reactions were started by addition of 100 μL potassium phosphate buffer (200 mM, pH 7.4) containing Human Liver Microsomes (HLM) (0.5 mg/mL). Probe reactions for CYP3A4, CYP2D6 and CYP2C9 were conducted with 50 μM testosterone, 22 μM dextromethorphan and 10 μM diclofenac for 15 min. Reactions were terminated with the addition of a quench solution (90 μL) of acetonitrile containing internal standards for LC-MS/MS determination (60 ppb cortisone, 100 ppb 4′-hydroxydiclofenac 13C6, 60 ppb levallorphan).
# [1] = Plasma protein binding assay (rapid equilibrium dialysis); type: in vitro ADME; conditions: for Protein binding: rapid equilibrium dialysis, 5 μM, 5 h
# Method: Protocol was based on literature [Kumar Singh et al. (2012)1 Bioeq. Bioay. S14]. Rapid equilibrium dialysis was performed with RED device inserts (Thermo Scientific, Meridian Rd., Rockford, Ill.) containing dialysis membrane with a molecular weight cut-off of 8,000 Daltons. Serum (200 μL) containing test compound (5 μM) was added to the serum chamber of the insert and 350 μL of buffer was added to the buffer chamber of the insert. Dialysis was done at 37° C. with shaking at 100 rpm for 5 h. Following dialysis, an aliquot of 50 μL was removed from each well (plasma and buffer side) and diluted with an equal volume of opposite matrix to nullify the matrix effect. Then a fraction (50 μL) of each dialyzed sample was crashed with 150 μL of acetonitrile containing internal standard and vortexed for 1 min. The samples were centrifuged at 13300 rpm at 4° C. for 12 min and 100 μL of supernatant was used for LC-MS/MS analysis.
# Nav1.5 channel = biological target: T2, Nav1.5 channel (Homo sapiens, UniProt Q14524); assay: Cardiotoxicity fluorescence-based assay, Nav1.5 channel; type: cell-based; conditions: HEK293 cells
# T2 construct: expressed in transfected cells; host or cells: HEK293
# Method: Fluorescence-based assays were performed using HEK293 cell lines that stably express the Nav1.5-channel, Cav1.2-channel or hERG K+-channel, using FMP Red Dye (Molecular Devices), calcium-sensitive fluorescent dye Fluo-4 (Invitrogen) and FIuxOR™ reagent (Invitrogen), respectively, and a FLIPR Tetra High-Throughput Cellular Screening System (Molecular Devices), according to manufacturer's protocols (Molecular Devices). Tetrodotoxin (TTX), israpidine and nicarpidine, and astemizole and haloperidol were used as standard sodium channel, calcium channel, and hERG channel blockers. Data were analyzed using Genedata Screener.
# [2] = test system: PTZ-induced epileptiform brain activity in zebrafish larvae; assay: Zebrafish PTZ seizure model, local field potential recordings (electrophysiology); type: in vivo, Danio rerio; conditions: 10 min recording, vs VHC+PTZ; for reduction of percentage of larvae with PTZ-induced epileptiform activity: MTC and optimal incubation time (2 h azaspirofuran, 18 h pseurotins), 15 min PTZ; for cumulative duration of epileptiform events / number of epileptiform events: MTC and optimal incubation time
# Source text: To determine whether azaspirofuran A and pseurotin A2 can ameliorate the PTZ-induced hyperexcitable state of the brain that is characterized by epileptiform discharges, local field potential (LFP) recordings were non-invasively measured from the midbrain (optic tectum) of zebrafish larvae [Zdebik et al. (2013) PLoS One 8, e79765; Britton et al. (2016) In Electroencephalography (EEG): An Introductory Text and Atlas of Normal and Abnormal Findings in Adults, Children, and Infants (St. Louis and Frey, Eds.), Chicago]. To that end larvae were treated with either VHC or test compound (MTC and optimal incubation time were used) followed by a 15 min during exposure to PTZ or VHC prior to the electrophysiology measurements (FIG. 4). […] Thus, both compounds not only ameliorate PTZ-induced seizures but are likely to do so by lowering the PTZ-induced hyperexcitable state of the brain.
# Experimental procedure was described before [Zdebik et al. (2013) PLoS One 8, e79765; Sourbron et al. (2017) Front. Pharmac. 8, 191; Copmans et al. (2018) Neurochem. Int. 112, 124-133.]. Non-invasive LFP recordings were measured from the midbrain (optic tectum) of 7 dpf zebrafish larvae pre-incubated with VHC only, PTZ only, compound and VHC, or compound and PTZ. Larvae were incubated for approximately 2 or 18 hours with VHC (1% DMSO) or compound (1% DMSO) in a 100 μL volume. After incubation, 100 μL of VHC (embryo medium) or 40 mM PTZ (dissolved in embryo medium, 20 mM working concentration) was added to the well for 15 min prior to recording. These steps occurred at 28° C., while further manipulation and electrophysiological recordings occurred at room temperature (21° C.). The larva was embedded in 2% low melting point agarose (Invitrogen) and the signal electrode (an electrode inside a soda-glass pipet (1412227, Hilgenberg) pulled with a DMZ Universal Puller (Zeitz, Germany), diameter±20 microns, containing artificial cerebrospinal fluid (ACSF: 124 mM NaCl, 10 mM glucose, 2 mM KCl, 2 mM MgSO4, 2 mM CaCl2, 1.25 mM KH2PO4, and 26 mM NaHCO3, 300-310 mOsmols)) was positioned on the skin covering the optic tectum. A differential extracellular amplifier (DAGAN, USA) amplified the voltage difference between the signal (measured by the signal electrode) and the reference electrode. The differential signal was band pass filtered at 0.3-300 Hz and digitized at 2 kHz via a PCI-6251 interface (National instruments, UK) using WinEDR (John Dempster, University of Strathclyde, UK). A grounding electrode grounded the electrical system. All electrodes were connected with ACSF. Each recording lasted 600 seconds. Manual analysis was completed by quantification of the number, cumulative duration, and mean duration of epileptiform-like events with Clampfit 10.2 software (Molecular Devices Corporation, USA). An electrical discharge was considered epileptiform if it was a poly-spiking event comprising at least 3 spikes with a minimum amplitude of three times the baseline amplitude and a duration of at least 100 milliseconds. Data are expressed as mean±SD for the number and cumulative duration of epileptiform events and as mean±SEM for the mean duration of events.
# T1 sequence (P11712 whole entry): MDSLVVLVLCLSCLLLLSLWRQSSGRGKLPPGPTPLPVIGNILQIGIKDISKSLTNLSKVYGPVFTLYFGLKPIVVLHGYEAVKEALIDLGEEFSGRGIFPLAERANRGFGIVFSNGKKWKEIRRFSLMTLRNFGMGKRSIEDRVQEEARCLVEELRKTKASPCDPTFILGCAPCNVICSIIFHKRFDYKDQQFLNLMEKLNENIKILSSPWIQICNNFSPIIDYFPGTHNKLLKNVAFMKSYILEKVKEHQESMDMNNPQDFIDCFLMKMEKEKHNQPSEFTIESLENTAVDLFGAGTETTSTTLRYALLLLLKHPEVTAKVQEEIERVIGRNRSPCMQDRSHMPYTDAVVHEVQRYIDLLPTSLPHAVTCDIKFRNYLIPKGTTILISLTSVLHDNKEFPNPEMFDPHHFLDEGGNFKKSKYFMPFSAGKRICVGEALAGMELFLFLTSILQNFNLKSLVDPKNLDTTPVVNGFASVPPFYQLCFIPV
# T2 sequence (Q14524 whole entry): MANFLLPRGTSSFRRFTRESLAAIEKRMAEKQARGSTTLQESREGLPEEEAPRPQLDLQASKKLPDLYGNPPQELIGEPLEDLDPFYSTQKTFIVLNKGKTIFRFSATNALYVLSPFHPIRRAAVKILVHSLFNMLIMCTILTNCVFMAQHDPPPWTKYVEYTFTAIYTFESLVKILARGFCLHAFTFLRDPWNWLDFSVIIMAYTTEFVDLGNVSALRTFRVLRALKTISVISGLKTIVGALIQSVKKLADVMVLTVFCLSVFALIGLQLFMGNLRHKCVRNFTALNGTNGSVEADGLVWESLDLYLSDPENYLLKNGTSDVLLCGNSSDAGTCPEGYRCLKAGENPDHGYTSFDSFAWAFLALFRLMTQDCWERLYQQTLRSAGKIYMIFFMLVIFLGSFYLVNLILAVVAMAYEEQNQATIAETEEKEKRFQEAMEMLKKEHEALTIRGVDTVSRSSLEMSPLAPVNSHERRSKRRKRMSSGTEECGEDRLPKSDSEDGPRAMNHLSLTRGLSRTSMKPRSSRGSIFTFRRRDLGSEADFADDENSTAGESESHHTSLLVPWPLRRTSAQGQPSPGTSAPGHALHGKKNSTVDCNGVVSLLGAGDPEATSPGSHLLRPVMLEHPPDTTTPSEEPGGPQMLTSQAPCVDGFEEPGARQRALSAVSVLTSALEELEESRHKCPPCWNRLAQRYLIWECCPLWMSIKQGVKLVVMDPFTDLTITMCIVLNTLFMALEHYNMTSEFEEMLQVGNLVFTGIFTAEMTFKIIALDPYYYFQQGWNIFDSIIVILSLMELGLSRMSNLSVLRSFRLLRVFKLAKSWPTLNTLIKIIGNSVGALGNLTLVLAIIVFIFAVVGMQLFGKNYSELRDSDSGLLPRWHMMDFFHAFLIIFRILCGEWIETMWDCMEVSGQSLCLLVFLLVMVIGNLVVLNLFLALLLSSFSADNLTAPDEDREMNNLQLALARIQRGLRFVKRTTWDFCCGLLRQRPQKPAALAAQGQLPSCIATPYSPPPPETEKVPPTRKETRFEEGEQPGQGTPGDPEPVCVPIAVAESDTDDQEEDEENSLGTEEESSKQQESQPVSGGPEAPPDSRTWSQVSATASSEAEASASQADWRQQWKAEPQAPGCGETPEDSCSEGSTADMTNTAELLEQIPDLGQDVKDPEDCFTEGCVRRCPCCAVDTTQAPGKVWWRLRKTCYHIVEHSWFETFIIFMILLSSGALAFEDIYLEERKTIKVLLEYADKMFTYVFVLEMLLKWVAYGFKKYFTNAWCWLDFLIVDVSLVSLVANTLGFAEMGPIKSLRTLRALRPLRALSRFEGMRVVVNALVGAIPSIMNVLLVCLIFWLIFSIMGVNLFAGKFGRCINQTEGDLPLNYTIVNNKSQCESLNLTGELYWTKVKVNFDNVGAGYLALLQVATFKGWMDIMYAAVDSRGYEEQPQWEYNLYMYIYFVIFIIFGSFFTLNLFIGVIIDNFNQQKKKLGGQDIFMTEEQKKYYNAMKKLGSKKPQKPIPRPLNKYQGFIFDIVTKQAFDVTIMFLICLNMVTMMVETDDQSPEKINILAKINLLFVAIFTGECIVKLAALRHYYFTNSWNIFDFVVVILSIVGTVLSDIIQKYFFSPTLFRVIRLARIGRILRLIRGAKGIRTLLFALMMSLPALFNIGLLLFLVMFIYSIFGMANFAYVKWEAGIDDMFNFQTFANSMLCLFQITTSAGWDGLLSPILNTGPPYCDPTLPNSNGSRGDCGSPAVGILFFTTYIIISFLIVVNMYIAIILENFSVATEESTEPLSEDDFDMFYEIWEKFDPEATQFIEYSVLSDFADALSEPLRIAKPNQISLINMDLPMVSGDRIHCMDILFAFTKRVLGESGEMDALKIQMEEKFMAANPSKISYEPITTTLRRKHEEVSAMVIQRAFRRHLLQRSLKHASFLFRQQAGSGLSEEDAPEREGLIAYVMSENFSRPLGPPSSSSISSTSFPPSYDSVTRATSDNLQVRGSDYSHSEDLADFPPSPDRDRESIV
SMILES,"CYP2C9, effect (CYP2C9)",IC50 (CYP2C9) [µM],Protein binding assay recovery [1] [%],"Protein binding, percentage of free drug rating [1]",Protein binding [1] [%],Protein binding ([1]; listed as Azaspirofuran A) [%],"Cardiotoxicity Nav1.5 channel, effect (Nav1.5 channel)",IC50 (Nav1.5 channel) [µM],reduction of percentage of larvae with PTZ-induced epileptiform activity [2] [%],cumulative duration of epileptiform events [2],number of epileptiform events [2],Protein binding ([1]; listed as Pseurotin A2) [%]
CCc1ccc(C2=C(C)C(=O)C3(O2)C(=O)NC(OC)(C(=O)c2ccccc2)C3O)o1 (stereo not shown) [azaspirofuran A],Weak,47.3,66.7,Low,95,95.42,Low,39.1,~60,shorter cumulative duration of events,significantly less epileptiform events,–
CC/C=C\[C@H](O)[C@H](O)C1=C(C)C(=O)[C@]2(O1)C(=O)N[C@](OC)(C(=O)c1ccccc1)[C@H]2O [pseurotin A2],No effect,> 88,100,High,37,–,No effect,> 50,33,shorter cumulative duration of events,significantly less epileptiform events,36.53
